Reference: patent US11560388B2, “Anthelmintic aza-benzothiophene and aza-benzofuran compounds” (Boehringer Ingelheim Vetmedica GmbH, priority 2019, dated 2023)

What was measured:
[1] = tested on: L1 Haemonchus contortus larvae; test: Screening of activity against Haemonchus contortus (larval development L1 to L3, dose response); type: cell-based; conditions: 96 h, read-out: EC50 (development of the larvae from L1 to L3)
[2] = tested on: Dirofilaria immitis; test: In vivo efficacy against Dirofilaria immitis in immunodeficient NSG mice; conditions: vs control group
[3] = tested on: Haemonchus contortus; test: In vivo efficacy against Haemonchus contortus in Mongolian jird (Meriones unguiculatus)
[4] = tested on: Trichostrongylus colubriformis; test: In vivo efficacy against Trichostrongylus colubriformis in Mongolian jird (Meriones unguiculatus)
[5] = tested on: microfilariae of Dirofilaria immitis; test: Screening of activity against microfilaria of Dirofilaria immitis (motility, dose response); type: cell-based; conditions: 72 h, read-out: EC50 (motility of the microfilaria)
[6] = Study #2, NSG mice, 25 mg/kg oral
[7] = Study #2, NSG mice, 50 mg/kg oral
[8] = Study 3, jird, 25 mg/kg oral gavage
[9] = Study 4, jird, 5 mg/kg oral gavage
[10] = Study #3, NSG mice, 25 mg/kg oral
[11] = Study 4, jird, 25 mg/kg oral gavage
[12] = Study 2, jird, 25 mg/kg oral gavage
[13] = Study 1, jird, 25 mg/kg oral gavage, necropsy 3 days after treatment
[14] = Study 1, jird, 10 mg/kg, positive control
[15] = Study 2, jird, 10 mg/kg, positive control
[16] = Study 3, jird, 10 mg/kg, positive control
[17] = Study 4, jird, 10 mg/kg, positive control

O=C(N[C@H]1CCOc2ccccc21)c1sc2c(-c3cc(F)cc(F)c3)cccc2c1C1=CCOCC1 [Compound 102-1]
EC50 [1]: 100 to 10000 nM

C=C(C)c1c(C(=O)N[C@H]2CCOc3ccccc32)sc2c(-c3cc(F)cc(F)c3)ccnc12 [Compound 119]
EC50 [1]: 100 to 10000 nM
% Reduction worms [2, 6]: 67%
% Reduction worms [2, 7]: 37%

CC(C)c1c(C(=O)N[C@H]2CCOc3ccccc32)sc2c(-c3cc(F)cc(F)c3)ccnc12 [Compound 120]
% Reduction worms [2, 6]: 47%
% Reduction worms [2, 7]: 33%

Cc1cc(F)cc(C)c1-c1ccnc2c(C(C)C)c(C(=O)N[C@H]3CCOc4ccccc43)sc12 [Compound 201, N-[(4S)-3,4-dihydro-2H-1-benzopyran-4-yl]-7-(4-fluoro-2,6-dimethylphenyl)-3-isopropylthieno[3,2-b]pyridine-2-carboxamide]
EC50 [1]: 100 to 10000 nM

CC(C)c1c(C(=O)N[C@H]2CCOc3ccccc32)sc2c(-c3cc(F)cc(F)c3)c(F)cnc12 [Compound 204]
% Reduction worms ([2]; Study #1, NSG mice, 50 mg/kg oral at Days 1, 15, 30 post-infection): 65%
% Reduction H. contortus [3, 8]: 100.0%
% Reduction H. contortus [3, 9]: 50.1%
% Reduction T. columbriformis [4, 8]: 100.0%
% Reduction T. columbriformis [4, 9]: 22.2%

O=C(N[C@H]1CCOc2ccccc21)c1sc2c(-c3cc(F)cc(F)c3)ccnc2c1C(F)F [Compound 205]
EC50 [5]: 100 to 10000 nM
EC50 [1]: 100 to 10000 nM

CC(C)c1c(C(=O)N[C@H]2CCOc3ccccc32)sc2c(-c3cccc(F)c3)ccnc12 [Compound 207]
% Reduction worms [2, 10]: 55%

CC(C)(C)c1c(C(=O)N[C@H]2CCOc3ccccc32)sc2c(-c3cc(F)cc(F)c3)ccnc12 [Compound 210]
% Reduction worms [2, 10]: 55%
% Reduction H. contortus [3, 8]: 100.0%
% Reduction T. columbriformis [4, 8]: 100.0%

CC(C)c1c(C(=O)N[C@H]2CCOc3ccc(F)cc32)sc2c(-c3cc(Cl)cc(Cl)c3)ccnc12 [Compound 211]
% Reduction worms ([2]; Study #1, NSG mice, 25 mg/kg oral at Days 1, 15, 30 post-infection): 61%
% Reduction H. contortus [3, 8]: 100.0%
% Reduction T. columbriformis [4, 8]: 100.0%

CC(C)(F)c1c(C(=O)N[C@H]2CCOc3ccccc32)sc2c(-c3cc(Cl)cc(Cl)c3)ccnc12 [Compound 212]
% Reduction worms ([2]; Study #1, NSG mice, 23 mg/kg (table) oral at Days 1, 15, 30 post-infection): 13%

C[C@@H]1C[C@H](C)CN(c2ccnc3c(N4CCOCC4)c(C(=O)N[C@H]4CCOc5ccccc54)sc23)C1 [Compound 217]
EC50 [5]: 100 to 10000 nM

CC(C)c1c(C(=O)N[C@H]2CCOc3ccccc32)sc2c(C3CCCCC3)ccnc12 [Compound 223]
EC50 [5]: < 10 nM
EC50 [1]: 100 to 10000 nM

O=C(N[C@H]1CCOc2ccccc21)c1sc2c(-c3cc(F)cc(F)c3)ccnc2c1C(F)(F)C(F)(F)F [Compound 238]
EC50 [5]: < 10 nM
EC50 [1]: 100 to 10000 nM

C=C(C)c1c(C(=O)N[C@H]2CCOc3ccccc32)sc2c(-c3cc(F)cc(F)c3)cnnc12 [Compound 239-INT-1]
EC50 [1]: 100 to 10000 nM

CC(C)c1c(C(=O)N[C@H]2CCOc3ccccc32)sc2c(C3(F)CCCCC3)ccnc12 [Compound 255, N-[(4S)-3,4-dihydro-2H-1-benzopyran-4-yl]-7-(1-fluorocyclohexyl)-3-isopropylthieno[3,2-b]pyridine-2-carboxamide]
EC50 [1]: 100 to 10000 nM

CC(C)c1c(C(=O)N[C@H]2CCOc3ccc(F)cc32)sc2c(-c3cc(F)cc(F)c3)ccnc12 [Compound 257]
% Reduction worms [2, 10]: 45%

CC(=O)c1c(C(=O)N[C@H]2CCOc3ccc(F)cc32)sc2c(-c3cc(Cl)cc(Cl)c3)ccnc12 [Compound 259-4]
EC50 [5]: 100 to 10000 nM

CC(C)(F)c1c(C(=O)N[C@H]2CCOc3ccc(F)cc32)sc2c(-c3cc(Cl)cc(Cl)c3)ccnc12 [Compound 259]
% Reduction H. contortus [3, 11]: 100.0%
% Reduction T. columbriformis [4, 11]: 99.5%

CC(C)c1c(C(=O)N[C@H]2CCOc3ccc(F)cc32)sc2c(-c3cc(F)cc(F)c3)c(F)cnc12 [Compound 260]
% Reduction H. contortus [3, 11]: 23.5%
% Reduction T. columbriformis [4, 11]: 45.8%

CC(C)(O)c1c(C(=O)N[C@H]2CCOc3ccccc32)sc2c(-c3cc(Cl)cc(Cl)c3)c(F)cnc12 [Compound 263-8]
EC50 [5]: < 10 nM
EC50 [1]: < 100 nM
% Reduction H. contortus [3, 12]: 99.8%
% Reduction H. contortus [3, 9]: 99.8%
% Reduction T. columbriformis [4, 12]: 100.0%
% Reduction T. columbriformis [4, 9]: 99.9%

CC(C)(F)c1c(C(=O)N[C@H]2CCOc3ccccc32)sc2c(-c3cc(Cl)cc(Cl)c3)c(F)cnc12 [Compound 263]
% Reduction H. contortus [3, 13]: 100.0%
% Reduction T. columbriformis [4, 13]: 100.0%

CC(C)(F)c1c(C(=O)N[C@H]2CCOc3ccccc32)sc2c(-c3cc(Cl)cc(Cl)c3)cncc12 [Compound 264, 7-(3,5-dichlorophenyl)-N-[(4S)-3,4-dihydro-2H-1-benzopyran-4-yl]-3-(2-fluoropropan-2-yl)thieno[3,2-c]pyridine-2-carboxamide]
EC50 [5]: < 10 nM
EC50 [1]: < 100 nM

CC(C)(O)c1c(C(=O)N[C@H]2CCOc3ccccc32)sc2c(-c3cc(Cl)cc(Cl)c3)cncc12 [Compound 264-0, 7-(3,5-dichlorophenyl)-N-[(4S)-3,4-dihydro-2H-1-benzopyran-4-yl]-3-(2-hydroxypropan-2-yl)thieno[3,2-c]pyridine-2-carboxamide]
EC50 [1]: < 100 nM

CC(C)(O)c1c(C(=O)N[C@H]2CCOc3ccccc32)sc2c(-c3ccnc(Cl)c3)ccnc12 [Compound 268-4]
EC50 [1]: 100 to 10000 nM

C=C(C)c1c(C(=O)N[C@H]2CCOc3ccccc32)sc2c(-c3cc(Cl)cc(Cl)c3)ccnc12 [Compound 285]
% Reduction H. contortus [3, 13]: 100.0%
% Reduction T. columbriformis [4, 13]: 100.0%

CC(C)c1c(C(=O)N[C@H]2CCOc3ccccc32)sc2c(-c3cc(F)cc(F)c3)c(Cl)cnc12 [Compound 310]
EC50 [5]: 100 to 10000 nM
EC50 [1]: < 100 nM

c1ccc([C@H]2CN3CCSC3=N2)cc1 [Levamisole, levamisole, reference compound]
% Reduction H. contortus [3, 14]: 98.4%
% Reduction H. contortus [3, 15]: 100.0%
% Reduction H. contortus [3, 16]: 100.0%
% Reduction H. contortus [3, 17]: 99.8%
% Reduction T. columbriformis [4, 14]: 89.1%
% Reduction T. columbriformis [4, 15]: 96.4%
% Reduction T. columbriformis [4, 16]: 100.0%
% Reduction T. columbriformis [4, 17]: 72.2%
